Here are results for 7 compounds from patent publication US8003660B2, “Modulators of muscarinic receptors” (Vertex Pharmaceuticals Incorporated, priority 2006, dated 2011).

Holding throughout (format): cell-based
The target in assay [1] is T1, M2 muscarinic receptor (Homo sapiens, UniProt P08172).
T1 construct: expressed in transfected cells; host or cells: CHO (M2-CHO)
T1 sequence (P08172 1-466): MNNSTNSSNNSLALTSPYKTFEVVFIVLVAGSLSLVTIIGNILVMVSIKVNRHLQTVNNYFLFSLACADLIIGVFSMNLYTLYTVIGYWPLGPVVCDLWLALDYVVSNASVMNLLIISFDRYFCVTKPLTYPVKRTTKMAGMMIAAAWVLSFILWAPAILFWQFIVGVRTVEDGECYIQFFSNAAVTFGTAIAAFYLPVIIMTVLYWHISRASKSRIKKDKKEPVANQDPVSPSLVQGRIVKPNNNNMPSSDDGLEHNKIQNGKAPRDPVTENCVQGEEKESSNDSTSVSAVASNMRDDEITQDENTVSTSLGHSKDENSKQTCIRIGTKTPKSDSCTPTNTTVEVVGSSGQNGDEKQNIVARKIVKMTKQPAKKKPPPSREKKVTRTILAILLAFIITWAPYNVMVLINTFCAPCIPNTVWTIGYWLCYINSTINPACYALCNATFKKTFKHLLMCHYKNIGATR
Kind of assay: Functional mobilization of intracellular calcium (FLIPR) in CHO cells expressing M2. The settings on record: for M2 Activity: CHO cells expressing M2, FLIPR calcium assay; for Emax: CHO, 100% efficacy = maximum response obtained with the Carbachol control. In outline: (§1)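 Recombinant CHO cells loaded with Fluo-3 AM or Calcium 3 dye in pH 7.4 buffer containing 1 mM probenecid, with 0.5% final DMSO. For agonism, compound is added directly. For inhibition, it is preincubated 15 min, or co-applied, before carbachol at EC80. FLIPR fluorescence (ex 488, em 540 nm) is recorded for 60 s.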

In assay [2] the target is T2, M4 muscarinic receptor (Homo sapiens, UniProt P08173).
T2 construct: expressed in transfected cells; host or cells: CHO (M4-CHO)
T2 sequence (P08173 1-479): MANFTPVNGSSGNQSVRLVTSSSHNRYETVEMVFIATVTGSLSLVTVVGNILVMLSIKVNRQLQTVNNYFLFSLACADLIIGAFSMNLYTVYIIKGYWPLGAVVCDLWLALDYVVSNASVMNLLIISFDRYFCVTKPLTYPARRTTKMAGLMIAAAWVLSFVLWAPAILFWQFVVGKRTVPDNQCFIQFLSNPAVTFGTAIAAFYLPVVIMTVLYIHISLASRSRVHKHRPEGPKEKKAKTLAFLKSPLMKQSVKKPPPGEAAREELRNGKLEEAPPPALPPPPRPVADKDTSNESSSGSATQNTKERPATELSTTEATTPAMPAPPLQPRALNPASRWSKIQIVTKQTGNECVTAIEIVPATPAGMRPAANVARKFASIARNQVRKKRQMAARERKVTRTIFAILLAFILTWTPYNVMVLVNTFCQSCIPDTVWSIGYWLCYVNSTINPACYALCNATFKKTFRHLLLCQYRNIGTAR
In words: Functional mobilization of intracellular calcium (FLIPR) in CHO cells expressing M4. The following applies: for M4 Activity: CHO cells expressing M4, FLIPR calcium assay; for Emax: CHO, 100% efficacy = maximum response obtained with the Carbachol control. The gist of the method:
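Read-out: FLIPR fluorescence (ex 488, em 540 nm) over 60 s. Recombinant CHO lines are dye-loaded (Fluo-3 AM or Calcium 3) with 1 mM probenecid. For antagonist mode, compound is pre-incubated 15 min, or co-applied, then carbachol is added at 3× EC80 per subtype.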

Assay [3] has as its target T3, M3 muscarinic receptor (Homo sapiens, UniProt P20309).
T3 construct: expressed in transfected cells; host or cells: CHO (M3-CHO)
In words: Functional mobilization of intracellular calcium (FLIPR) in CHO cells expressing M3. The following applies: for M3 Activity: CHO cells expressing M3, FLIPR calcium assay; for Emax: CHO, 100% efficacy = maximum response obtained with the Carbachol control. The gist of the method:
as §1

In assay [4] the target is T4, M1 muscarinic receptor (Homo sapiens, UniProt P11229).
T4 construct: expressed in transfected cells; host or cells: CHO (M1-CHO)
T4 sequence (P11229 1-460): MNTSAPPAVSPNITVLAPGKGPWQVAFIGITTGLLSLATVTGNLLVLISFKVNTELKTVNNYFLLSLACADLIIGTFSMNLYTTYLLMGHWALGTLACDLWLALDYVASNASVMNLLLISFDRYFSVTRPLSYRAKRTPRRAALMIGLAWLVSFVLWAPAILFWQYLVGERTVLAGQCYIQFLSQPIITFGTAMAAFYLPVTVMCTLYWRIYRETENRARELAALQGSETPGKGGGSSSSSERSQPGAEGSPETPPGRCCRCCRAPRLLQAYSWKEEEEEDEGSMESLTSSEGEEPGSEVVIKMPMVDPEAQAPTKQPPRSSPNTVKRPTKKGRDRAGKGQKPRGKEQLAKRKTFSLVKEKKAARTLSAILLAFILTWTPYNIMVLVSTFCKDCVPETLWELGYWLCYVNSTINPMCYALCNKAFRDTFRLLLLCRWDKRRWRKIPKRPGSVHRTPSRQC
In words: Functional mobilization of intracellular calcium (FLIPR) in CHO cells expressing M1. The following applies: for M1 Activity: CHO cells expressing M1, FLIPR calcium assay; for Emax: CHO, 100% efficacy = maximum response obtained with the Carbachol control. In outline: as §1

T3 sequence (P20309 whole entry): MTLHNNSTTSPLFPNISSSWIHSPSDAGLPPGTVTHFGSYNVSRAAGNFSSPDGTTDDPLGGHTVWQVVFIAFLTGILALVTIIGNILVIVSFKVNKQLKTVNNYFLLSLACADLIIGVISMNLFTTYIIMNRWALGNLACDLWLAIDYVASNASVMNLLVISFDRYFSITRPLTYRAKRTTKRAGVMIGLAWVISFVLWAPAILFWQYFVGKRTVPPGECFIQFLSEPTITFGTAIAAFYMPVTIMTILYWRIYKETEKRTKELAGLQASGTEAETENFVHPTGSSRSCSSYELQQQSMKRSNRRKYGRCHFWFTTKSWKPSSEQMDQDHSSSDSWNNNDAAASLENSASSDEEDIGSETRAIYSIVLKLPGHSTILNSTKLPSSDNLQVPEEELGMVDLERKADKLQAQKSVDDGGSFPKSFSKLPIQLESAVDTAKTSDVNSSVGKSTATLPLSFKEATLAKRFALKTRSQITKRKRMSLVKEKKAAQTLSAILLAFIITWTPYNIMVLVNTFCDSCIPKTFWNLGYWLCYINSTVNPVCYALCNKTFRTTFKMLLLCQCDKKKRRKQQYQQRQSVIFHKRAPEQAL

For the compound `C#CCNC(=O)CN1CCC2(CC1)C[C@H](NC(C)=O)c1ccccc12` [compound 262], in assay [1], the “M2 Activity” value is “+ (activity was measured to be greater than 5.0 μM)” and the Emax was less than 25%. Besides, in assay [2], the “M4 Activity” value is given as “+ (activity was measured to be greater than 5.0 μM)” and the Emax is less than 25%. For the same compound, in assay [3], the “M3 Activity” value is recorded as “+ (activity was measured to be greater than 5.0 μM)” and the Emax was less than 25%. Also, in assay [4], the “M1 Activity” value is given as “+ (activity was measured to be greater than 5.0 μM)” and the Emax was less than 25%.

Turning to `C=CCC(C)(C)CN1CCC2(CC1)C[C@H](NC(C)=O)c1ccccc12` [compound 263], in assay [1], the “M2 Activity” value is “+ (activity was measured to be greater than 5.0 μM)” and the Emax was less than 25%. In addition, in assay [2], the “M4 Activity” value is on record as “++ (activity was measured to be from 2.0 μM to 5.0 μM)” and the Emax is less than 25%. For the same compound, in assay [3], the “M3 Activity” value is on record as “+ (activity was measured to be greater than 5.0 μM)” and the maximal effect (Emax) was less than 25%. Besides, in assay [4], the “M1 Activity” value was “+ (activity was measured to be greater than 5.0 μM)” and the Emax lay in the range of 25 to 100%.

Take `CCCC(=O)N[C@H]1CC2(CCN(CCC(C)(C)C)CC2)c2ccccc21` [compound 264]: in assay [1], the “M2 Activity” value is reported as “+ (activity was measured to be greater than 5.0 μM)” and the Emax was less than 25%. Also, in assay [2], the “M4 Activity” value is recorded as “+++ (activity was measured to be less than 2.0 μM)” and the Emax is 25 to 100%. Moreover, in assay [3], the “M3 Activity” value is listed as “+ (activity was measured to be greater than 5.0 μM)” and the Emax is less than 25%. In assay [4], the “M1 Activity” value is given as “+ (activity was measured to be greater than 5.0 μM)” and the Emax is less than 25%.

On to `CC(C)CCN1CCC2(CC1)C[C@H](NC(=O)c1ccoc1)c1ccccc12` [compound 267], for which, in assay [1], the “M2 Activity” value is recorded as “+ (activity was measured to be greater than 5.0 μM)” and the Emax is less than 25%. In assay [2], the “M4 Activity” value is reported as “+ (activity was measured to be greater than 5.0 μM)” and the Emax is less than 25%. In assay [3], the “M3 Activity” value is listed as “+ (activity was measured to be greater than 5.0 μM)” and the Emax is less than 25%. Moreover, in assay [4], the “M1 Activity” value is reported as “+ (activity was measured to be greater than 5.0 μM)” and the Emax is less than 25%.

Consider `CCC(CC)(CCC#N)CN1CCC2(CC1)C[C@H](NC(C)=O)c1ccccc12` [compound 269], for which, in assay [1], the “M2 Activity” value is “+ (activity was measured to be greater than 5.0 μM)” and the Emax was less than 25%. Further, in assay [2], the “M4 Activity” value is “++ (activity was measured to be from 2.0 μM to 5.0 μM)” and the Emax lay within 25 to 100%. In assay [3], the “M3 Activity” value is listed as “+ (activity was measured to be greater than 5.0 μM)” and the Emax was less than 25%. In assay [4], the “M1 Activity” value is “+ (activity was measured to be greater than 5.0 μM)” and the Emax lay within 25 to 100%.

Consider `CCC(=O)N[C@H]1CC2(CCN(C(=O)OC(C)(C)C)CC2)c2ccccc21` [compound 271], for which, in assay [1], the “M2 Activity” value is “+ (activity was measured to be greater than 5.0 μM)” and the Emax was less than 25%. In assay [2], the “M4 Activity” value is recorded as “+ (activity was measured to be greater than 5.0 μM)” and the Emax is less than 25%. Further, in assay [3], the “M3 Activity” value is on record as “+ (activity was measured to be greater than 5.0 μM)” and the Emax was less than 25%. In assay [4], the “M1 Activity” value is “+ (activity was measured to be greater than 5.0 μM)” and the Emax was less than 25%.

Regarding `CC(=O)N[C@H]1CCC2(CCN(C(=O)OC(C)(C)C)CC2)c2ccccc21` [compound 272], in assay [1], the “M2 Activity” value is “+ (activity was measured to be greater than 5.0 μM)” and the Emax was less than 25%. For the same compound, in assay [2], the “M4 Activity” value is reported as “+ (activity was measured to be greater than 5.0 μM)” and the Emax is less than 25%. In addition, in assay [3], the “M3 Activity” value was “+ (activity was measured to be greater than 5.0 μM)” and the Emax was less than 25%. Further, in assay [4], the “M1 Activity” value is listed as “+ (activity was measured to be greater than 5.0 μM)” and the Emax was less than 25%.
